Assay results: patent US20110237600A1, “COMPOUNDS FOR IMPROVING LEARNING AND MEMORY” (AMNESTIX, INC., priority 2008, published 2011)
Values belong to the compound of their own block, whether it stands above or below them.

How the values were obtained:
[1] = tested on: undifferentiated PC12 cells; details: Zhang et al., Cell Mol Biol Lett., 2006; cited from earlier work
over 400 kinases = assay: Kinase specificity analysis (KinomeScan panel); details: 10 μM concentration; strong binding (more than 50%) for 19 kinases only
Excerpt: (§1) Active-site dependent competition binding assays can be performed with hundreds of known kinases in parallel (Fabian et al., Nat Biotechnol. 2005, 23, 329; Karaman et al., Nat Biotechnol. 2008, 26, 127) in order to determine how compounds bind to both intended and unintended kinases. Such methods allow the assessment of the specificity of a kinase inhibitor.
Based on a competition binding assay that quantitatively measures the ability of a test compound to compete with an immobilized, active-site directed ligand it is possible to scan the competitive effect of the test compound for a broad variety of kinases in parallel (KinomeScan, Ambit, San Diego, Calif., USA; Fabian et al., Nat Biotechnol. 2005, 23, 329). Based on this analysis it is possible to assess the inhibitory specificity of a test compound. The assay was performed with 1-(8-cyclohexyl-5 isoquinoline-sulfonyl) 2-methyl-piperazine in 10 μM concentration. As result of the assay one obtains the percentage of competition of the active-site directed ligand for each of the over 400 kinases of the test due to the incubation with the test compounds. FIG. 3 lists the kinases ranked according to their binding to 1-(8-cyclohexyl-5 isoquinoline-sulfonyl) 2-methyl-piperazine (compound A). […]

CSNK1E = target: T1, CSNK1E (Homo sapiens, UniProt P49674); assay: KinomeScan active-site dependent competition binding assay; details: 10 μM concentration
T1 construct: purchased Ambit
Excerpt: as §1
(§2) Based on a competition binding assay that quantitatively measures the ability of a test compound to compete with an immobilized, active-site directed ligand it is possible to scan the competitive effect of the test compound for a broad variety of kinases in parallel (KinomeScan, Ambit, San Diego, Calif., USA; Fabian et al., Nat Biotechnol. 2005, 23, 329). Based on this analysis it is possible to assess the inhibitory specificity of a test compound. The assay was performed with 1-(8-cyclohexyl-5 isoquinoline-sulfonyl) 2-methyl-piperazine in 10 μM concentration. As result of the assay one obtains the percentage of competition of the active-site directed ligand for each of the over 400 kinases of the test due to the incubation with the test compounds. FIG. 3 lists the kinases ranked according to their binding to 1-(8-cyclohexyl-5 isoquinoline-sulfonyl) 2-methyl-piperazine (compound A). Strong binding (more than 50%) of 1-(8-cyclohexyl-5 isoquinoline-sulfonyl) 2-methyl-piperazine is found only for the kinases CSNK1E, CSNK1A1L, CSNK1D, MERTK, SLK, IRAK1, STK10, MAPK12, PHKG2, MAPK11, MET, AXL, STK32B, AURKC, CLK3, RPS6KA6, PDGFRB, KDR, CDK2.

PDGFRB = target: T2, PDGFRB (Homo sapiens, UniProt P09619); assay: as above; details: 10 μM concentration
T2 construct: purchased Ambit
Excerpt: as §1, §2

MAPK11 = target: T3, MAPK11 (Homo sapiens, UniProt Q15759); assay: as above; details: 10 μM concentration
T3 construct: purchased Ambit
Excerpt: as §1, §2

STK32B = target: T4, STK32B (Homo sapiens, UniProt Q9NY57); assay: as above; details: 10 μM concentration
T4 construct: purchased Ambit
Excerpt: as §1, §2

CLK3 = target: T5, CLK3 (Homo sapiens, UniProt P49761); assay: as above; details: 10 μM concentration
T5 construct: purchased Ambit
Excerpt: as §1, §2

AURKC = target: T6, AURKC (Homo sapiens, UniProt Q9UQB9); assay: as above; details: 10 μM concentration
T6 construct: purchased Ambit
Excerpt: as §1, §2

CSNK1D = target: T7, CSNK1D (Homo sapiens, UniProt P48730); assay: as above; details: 10 μM concentration
T7 construct: purchased Ambit
Excerpt: as §1, §2

STK10 = target: T8, STK10 (Homo sapiens, UniProt O94804); assay: as above; details: 10 μM concentration
T8 construct: purchased Ambit
Excerpt: as §1, §2

SLK = target: T9, SLK (Homo sapiens, UniProt Q9H2G2); assay: as above; details: 10 μM concentration
T9 construct: purchased Ambit
Excerpt: as §1, §2

MERTK = target: T10, MERTK (Homo sapiens, UniProt Q12866); assay: as above; details: 10 μM concentration
T10 construct: purchased Ambit
Excerpt: as §1, §2

CDK2 = target: T11, CDK2 (Homo sapiens, UniProt P24941); assay: as above; details: 10 μM concentration
T11 construct: purchased Ambit
Excerpt: as §1, §2

RPS6KA6 = target: T12, RPS6KA6 (Homo sapiens, UniProt Q9UK32); assay: as above; details: 10 μM concentration
T12 construct: purchased Ambit
Excerpt: as §1, §2

AXL = target: T13, AXL (Homo sapiens, UniProt P30530); assay: as above; details: 10 μM concentration
T13 construct: purchased Ambit
Excerpt: as §1, §2

PHKG2 = target: T14, PHKG2 (Homo sapiens, UniProt P15735); assay: as above; details: 10 μM concentration
T14 construct: purchased Ambit
Excerpt: as §1, §2

MET = target: T15, MET (Homo sapiens, UniProt P08581); assay: as above; details: 10 μM concentration
T15 construct: purchased Ambit
Excerpt: as §1, §2

CSNK1A1L = target: T16, CSNK1A1L (Homo sapiens, UniProt Q8N752); assay: as above; details: 10 μM concentration
T16 construct: purchased Ambit
Excerpt: as §1, §2

MAPK12 = target: T17, MAPK12 (Homo sapiens, UniProt P53778); assay: as above; details: 10 μM concentration
T17 construct: purchased Ambit
Excerpt: as §1, §2

KDR = target: T18, KDR (Homo sapiens, UniProt P35968); assay: as above; details: 10 μM concentration
T18 construct: purchased Ambit
Excerpt: as §1, §2

IRAK1 = target: T19, IRAK1 (Homo sapiens, UniProt P51617); assay: as above; details: 10 μM concentration
T19 construct: purchased Ambit
Excerpt: as §1, §2

[2] = tested on: hippocampal slices from 3-4 week-old Wistar rats; assay: In vitro LTP analysis, theta burst stimulation, fEPSP slope recording; assay type: cell-based, rat
Excerpt: The effect of long-term potentiation (LTP) which can be measured in vitro, is generally thought to correlate with memory. Stimulation of an afferent neuron or neuronal cell area results in membrane potentials of a downstream positioned neuron or neuronal cell area. Such membrane potentials are long-term potentiated at least over hours after stimulating the afferent neurons e.g. with a theta burst paradigm. Therefore, LTP is regarded as memory on cellular level. Electrophysiological LTP measurements on neurons incubated with a test compound in comparison to sham incubated neurons can be used to assess the compounds' potential to enhance memory (See generally Cooke and Bliss, Brain, 2006, 129 (1659), which is hereby incorporated by reference).
LTP is thought to be suitable as in vitro model for the assessment of memory function. Therefore, it allows analysis of test compounds, e.g. the compounds of the invention, e.g. 1-(8-cyclohexyl-5 isoquinoline-sulfonyl) 2-methyl-piperazine for memory enhancing potential. Experiments were done on hippocampal slices from 3-4 week-old Wistar rats. The rats were sacrificed by decapitation without prior anesthesia. […] A platinum/tungsten electrode was then lowered into the CA1 dendritic layer under visual control until stable amplitudes of the recorded fEPSP were achieved. […] Then, the test compound was washed in for a period of 30 min during which stimulation was continued at 0.05 Hz and fEPSPs were continuously recorded. […] All slices recorded simultaneously were treated with the same time schedule. From the recorded data, the amplitudes of the evoked fEPSP were automatically calculated by the recording software (Synchroslice data acquisition and analysis, LRE) as the negative peak of the postsynaptic signal with respect to baseline and plotted online. All recorded signals were digitally stored for later offline analysis, in particular for fEPSP negative slope calculation. From the stored single sweeps, the slope was calculated between 30% and 70% of the maximum fEPSP amplitude. […]

T1 sequence (P49674 whole entry): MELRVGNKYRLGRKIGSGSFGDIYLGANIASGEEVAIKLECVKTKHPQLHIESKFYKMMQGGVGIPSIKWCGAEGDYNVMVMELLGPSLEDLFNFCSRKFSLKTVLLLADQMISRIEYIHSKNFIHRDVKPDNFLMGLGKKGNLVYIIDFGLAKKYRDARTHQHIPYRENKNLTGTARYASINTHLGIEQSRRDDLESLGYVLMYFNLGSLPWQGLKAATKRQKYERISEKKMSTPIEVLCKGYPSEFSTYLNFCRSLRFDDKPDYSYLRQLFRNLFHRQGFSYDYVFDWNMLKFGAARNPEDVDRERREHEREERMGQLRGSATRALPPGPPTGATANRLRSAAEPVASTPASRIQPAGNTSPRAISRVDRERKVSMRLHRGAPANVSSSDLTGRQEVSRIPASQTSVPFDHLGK
T19 sequence (P51617 whole entry): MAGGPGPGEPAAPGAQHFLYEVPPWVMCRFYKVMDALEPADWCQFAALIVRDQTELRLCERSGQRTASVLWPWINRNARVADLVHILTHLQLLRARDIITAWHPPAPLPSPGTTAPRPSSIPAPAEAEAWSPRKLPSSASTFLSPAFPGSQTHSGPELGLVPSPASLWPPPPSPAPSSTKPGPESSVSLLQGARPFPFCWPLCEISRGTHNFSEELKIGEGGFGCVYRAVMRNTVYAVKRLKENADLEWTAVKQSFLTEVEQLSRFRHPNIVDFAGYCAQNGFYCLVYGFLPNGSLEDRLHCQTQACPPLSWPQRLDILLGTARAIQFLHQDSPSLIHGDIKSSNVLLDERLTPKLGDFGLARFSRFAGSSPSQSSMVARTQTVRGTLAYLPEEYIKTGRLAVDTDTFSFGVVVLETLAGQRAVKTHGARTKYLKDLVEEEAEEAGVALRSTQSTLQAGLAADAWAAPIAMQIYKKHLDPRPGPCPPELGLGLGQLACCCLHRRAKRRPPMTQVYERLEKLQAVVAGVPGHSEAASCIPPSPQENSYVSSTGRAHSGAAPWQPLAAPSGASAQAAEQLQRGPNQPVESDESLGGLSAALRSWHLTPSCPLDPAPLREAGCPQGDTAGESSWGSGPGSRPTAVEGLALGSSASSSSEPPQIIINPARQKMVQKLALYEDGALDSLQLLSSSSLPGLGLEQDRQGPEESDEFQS
T15 sequence (P08581 25-1390): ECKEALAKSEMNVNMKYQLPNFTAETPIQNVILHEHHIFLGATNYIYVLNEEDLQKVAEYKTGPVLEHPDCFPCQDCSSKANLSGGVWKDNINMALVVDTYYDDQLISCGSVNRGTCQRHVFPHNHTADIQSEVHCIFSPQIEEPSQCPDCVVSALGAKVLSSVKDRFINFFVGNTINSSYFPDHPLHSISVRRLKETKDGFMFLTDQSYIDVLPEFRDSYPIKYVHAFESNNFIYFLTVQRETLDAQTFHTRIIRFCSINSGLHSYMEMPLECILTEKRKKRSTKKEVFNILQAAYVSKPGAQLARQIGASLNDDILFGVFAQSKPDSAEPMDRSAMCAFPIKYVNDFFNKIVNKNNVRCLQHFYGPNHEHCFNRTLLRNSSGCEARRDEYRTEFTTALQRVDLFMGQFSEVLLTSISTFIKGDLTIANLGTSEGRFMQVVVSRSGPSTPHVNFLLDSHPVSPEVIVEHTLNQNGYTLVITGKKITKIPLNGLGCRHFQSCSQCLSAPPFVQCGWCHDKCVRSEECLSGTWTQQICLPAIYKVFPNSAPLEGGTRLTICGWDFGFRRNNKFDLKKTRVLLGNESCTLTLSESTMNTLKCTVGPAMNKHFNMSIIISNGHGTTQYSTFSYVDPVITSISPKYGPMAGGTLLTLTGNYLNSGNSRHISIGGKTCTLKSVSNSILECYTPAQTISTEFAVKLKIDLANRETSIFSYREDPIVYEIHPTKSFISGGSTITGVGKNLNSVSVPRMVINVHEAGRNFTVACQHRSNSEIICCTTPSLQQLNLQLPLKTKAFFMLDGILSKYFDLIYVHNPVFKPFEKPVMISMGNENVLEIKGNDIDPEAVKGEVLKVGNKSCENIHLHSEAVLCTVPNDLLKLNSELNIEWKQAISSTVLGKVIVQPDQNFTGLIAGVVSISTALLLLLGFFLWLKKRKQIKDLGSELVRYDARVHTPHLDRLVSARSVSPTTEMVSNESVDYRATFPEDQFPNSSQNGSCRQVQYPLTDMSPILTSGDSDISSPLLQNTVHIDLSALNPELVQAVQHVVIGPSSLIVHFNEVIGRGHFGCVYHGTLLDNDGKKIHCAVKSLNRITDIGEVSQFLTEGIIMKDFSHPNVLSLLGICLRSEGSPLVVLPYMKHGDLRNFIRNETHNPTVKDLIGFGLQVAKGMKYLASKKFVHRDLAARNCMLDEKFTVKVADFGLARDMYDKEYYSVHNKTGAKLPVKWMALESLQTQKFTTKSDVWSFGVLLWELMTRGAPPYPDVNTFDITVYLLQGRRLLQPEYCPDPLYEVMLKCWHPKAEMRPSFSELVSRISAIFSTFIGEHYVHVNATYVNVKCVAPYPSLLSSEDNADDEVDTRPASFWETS
T8 sequence (O94804 whole entry): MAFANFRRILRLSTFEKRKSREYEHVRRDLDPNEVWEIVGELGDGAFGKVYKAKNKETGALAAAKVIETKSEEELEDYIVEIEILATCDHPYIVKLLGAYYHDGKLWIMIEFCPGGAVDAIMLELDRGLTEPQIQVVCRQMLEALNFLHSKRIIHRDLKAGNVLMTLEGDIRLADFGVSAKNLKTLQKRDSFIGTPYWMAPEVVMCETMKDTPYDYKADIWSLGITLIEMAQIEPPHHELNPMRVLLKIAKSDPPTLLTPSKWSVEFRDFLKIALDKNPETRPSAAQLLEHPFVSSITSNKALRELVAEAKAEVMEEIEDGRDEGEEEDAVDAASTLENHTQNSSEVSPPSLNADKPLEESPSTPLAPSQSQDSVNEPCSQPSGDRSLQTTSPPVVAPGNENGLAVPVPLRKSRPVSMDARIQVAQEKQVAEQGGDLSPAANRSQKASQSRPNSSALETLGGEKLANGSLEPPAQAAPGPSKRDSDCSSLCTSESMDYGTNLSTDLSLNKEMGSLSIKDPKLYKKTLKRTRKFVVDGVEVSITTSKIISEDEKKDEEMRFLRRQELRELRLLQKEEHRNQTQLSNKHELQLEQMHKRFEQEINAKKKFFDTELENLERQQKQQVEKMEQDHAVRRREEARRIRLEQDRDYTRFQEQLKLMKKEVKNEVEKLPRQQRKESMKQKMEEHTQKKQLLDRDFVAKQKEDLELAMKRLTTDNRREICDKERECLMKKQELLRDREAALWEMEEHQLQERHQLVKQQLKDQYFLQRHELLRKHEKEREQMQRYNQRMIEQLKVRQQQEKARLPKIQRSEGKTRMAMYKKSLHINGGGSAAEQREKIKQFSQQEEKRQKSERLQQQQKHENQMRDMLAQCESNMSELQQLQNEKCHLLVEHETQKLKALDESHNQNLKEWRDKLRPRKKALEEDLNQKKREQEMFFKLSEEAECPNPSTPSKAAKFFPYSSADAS
T9 sequence (Q9H2G2 whole entry): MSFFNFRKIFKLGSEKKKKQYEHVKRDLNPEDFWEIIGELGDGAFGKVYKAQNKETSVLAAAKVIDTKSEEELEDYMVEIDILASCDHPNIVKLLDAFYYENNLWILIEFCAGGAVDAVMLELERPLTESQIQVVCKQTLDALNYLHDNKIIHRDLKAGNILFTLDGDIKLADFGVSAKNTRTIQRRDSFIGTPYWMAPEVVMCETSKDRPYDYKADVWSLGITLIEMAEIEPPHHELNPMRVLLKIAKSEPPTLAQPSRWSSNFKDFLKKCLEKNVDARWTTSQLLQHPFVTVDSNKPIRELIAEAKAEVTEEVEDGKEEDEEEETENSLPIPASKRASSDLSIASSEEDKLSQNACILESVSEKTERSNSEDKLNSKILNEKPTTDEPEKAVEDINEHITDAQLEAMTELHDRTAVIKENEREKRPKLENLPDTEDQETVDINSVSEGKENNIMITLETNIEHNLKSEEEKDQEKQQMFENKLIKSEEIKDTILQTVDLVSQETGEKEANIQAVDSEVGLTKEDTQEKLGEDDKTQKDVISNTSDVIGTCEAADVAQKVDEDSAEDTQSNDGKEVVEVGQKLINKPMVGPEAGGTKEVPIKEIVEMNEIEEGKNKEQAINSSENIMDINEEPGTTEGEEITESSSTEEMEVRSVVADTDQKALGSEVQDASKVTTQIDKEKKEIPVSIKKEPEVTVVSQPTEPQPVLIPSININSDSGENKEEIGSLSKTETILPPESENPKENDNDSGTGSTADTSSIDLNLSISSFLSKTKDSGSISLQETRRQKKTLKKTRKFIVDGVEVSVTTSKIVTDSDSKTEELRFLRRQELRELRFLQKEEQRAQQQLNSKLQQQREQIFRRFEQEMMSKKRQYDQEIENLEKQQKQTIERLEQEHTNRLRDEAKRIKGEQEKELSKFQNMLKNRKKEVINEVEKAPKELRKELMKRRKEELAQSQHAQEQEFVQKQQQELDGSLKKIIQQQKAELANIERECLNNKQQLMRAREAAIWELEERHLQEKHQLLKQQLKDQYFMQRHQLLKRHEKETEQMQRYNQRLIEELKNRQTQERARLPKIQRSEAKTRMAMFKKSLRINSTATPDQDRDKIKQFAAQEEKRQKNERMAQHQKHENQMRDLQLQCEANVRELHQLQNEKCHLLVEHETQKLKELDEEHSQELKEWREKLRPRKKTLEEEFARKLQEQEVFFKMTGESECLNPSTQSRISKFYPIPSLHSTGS
T14 sequence (P15735 whole entry): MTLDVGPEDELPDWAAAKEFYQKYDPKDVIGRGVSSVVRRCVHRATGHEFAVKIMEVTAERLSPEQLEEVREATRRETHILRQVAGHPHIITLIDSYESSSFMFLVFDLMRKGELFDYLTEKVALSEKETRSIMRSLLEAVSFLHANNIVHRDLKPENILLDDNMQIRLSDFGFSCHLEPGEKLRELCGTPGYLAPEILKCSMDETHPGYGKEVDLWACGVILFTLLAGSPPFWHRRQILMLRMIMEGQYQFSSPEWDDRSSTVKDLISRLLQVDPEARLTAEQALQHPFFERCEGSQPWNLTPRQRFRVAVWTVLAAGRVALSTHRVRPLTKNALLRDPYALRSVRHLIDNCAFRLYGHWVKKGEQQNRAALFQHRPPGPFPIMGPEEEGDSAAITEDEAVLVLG

SMILES: O=S(=O)(c1cccc2cnccc12)N1CCCNCC1 [Fasudil]
neurite outgrowth [1]: increase neurite outgrowth

inhibitory specificity across the kinase panel (over 400 kinases): very selective kinase inhibitor
binding (percentage of competition of the active-site directed ligand) (CSNK1E): more than 50%
binding (percentage of competition of the active-site directed ligand) (PDGFRB): more than 50%
binding (percentage of competition of the active-site directed ligand) (MAPK11): more than 50%
binding (percentage of competition of the active-site directed ligand) (STK32B): more than 50%
binding (percentage of competition of the active-site directed ligand) (CLK3): more than 50%
binding (percentage of competition of the active-site directed ligand) (AURKC): more than 50%
binding (percentage of competition of the active-site directed ligand) (CSNK1D): more than 50%
binding (percentage of competition of the active-site directed ligand) (STK10): more than 50%
binding (percentage of competition of the active-site directed ligand) (SLK): more than 50%
binding (percentage of competition of the active-site directed ligand) (MERTK): more than 50%
binding (percentage of competition of the active-site directed ligand) (CDK2): more than 50%
binding (percentage of competition of the active-site directed ligand) (RPS6KA6): more than 50%
binding (percentage of competition of the active-site directed ligand) (AXL): more than 50%
binding (percentage of competition of the active-site directed ligand) (PHKG2): more than 50%
binding (percentage of competition of the active-site directed ligand) (MET): more than 50%
binding (percentage of competition of the active-site directed ligand) (CSNK1A1L): more than 50%
binding (percentage of competition of the active-site directed ligand) (MAPK12): more than 50%
binding (percentage of competition of the active-site directed ligand) (KDR): more than 50%
binding (percentage of competition of the active-site directed ligand) (IRAK1): more than 50%
SMILES: CC1CNCCN1S(=O)(=O)c1ccc(C2CCCCC2)c2cnccc12 (stereo not drawn) [1-(8-cyclohexyl-5 isoquinoline-sulfonyl) 2-methyl-piperazine]
increase in EPSP slopes when the compound is removed ([2]; 100 μM concentration): most obvious and very strong
LTP induction (fEPSP slope) ([2]; compound washed in at increasing concentrations (1 μM, 10 μM and 100 μM), control slices about 140% of pre-stimulus levels): complete block of LTP-induction
EPSP slopes when the compound is removed ([2]; wash-out 30 min after LTP induction, 1 μM, 10 μM and 100 μM): increase in EPSP slopes
